ChEMBL document CHEMBL5038614, “Discovery of styrylaniline derivatives as novel alpha-synuclein aggregates ligands” (Eur J Med Chem, 2021)
Active and inactive are the calls of the source. The calls are words filed in the database; no cut-off is given here.

Experiments:
[1] = Plasma concentration in Sprague-Dawley rat at 5 mg/kg, iv measured upto 120 mins by LC-MS/MS analysis; assay type: ADME, organism-based
Mus musculus [2] = organism: Mus musculus; assay: Binding affinity to alpha-syn PFF in chronic C57BL/6 mouse M2 motor cortex measured for 1 hrs by immunofluorescence confocal microscopic analysis; assay type: tissue-based
[3] = Ratio of drug concentration in Sprague-Dawley rat brain to plasma at 5 mg/kg, iv measured upto 120 mins by LC-MS/MS analysis; assay type: ADME, organism-based; conditions: read-out: BPR
[4] = Brain concentration in Sprague-Dawley rat at 5 mg/kg, iv measured upto 120 mins by LC-MS/MS analysis; assay type: ADME, organism-based; conditions: read-out: Ct
Mus musculus [5] = organism: Mus musculus; assay: Binding affinity to alpha-syn PFF in acute C57BL/6 mouse brain striatum measured after 1 hrs by immunofluorescence confocal microscopic analysis; assay type: tissue-based
[6] = Permeability of compound in BBB assay; assay type: ADME
Mus musculus [7] = organism: Mus musculus; assay: Binding affinity to alpha-syn PFF in chronic C57BL/6 mouse brain straitum measured for 1 hrs by immunofluorescence confocal microscopic analysis; assay type: tissue-based; conditions: Striatum
Alpha-synuclein = Alpha-synuclein (Homo sapiens, UniProt P37840); assay: Binding affinity to recombinant human alpha-syn aggregates assessed as dissociation constant by SPR analysis

In the case of O=C(Nc1ccccc1/C=C/c1ccc([N+](=O)[O-])cc1)c1ccccn1, the concentration at 2 h [1] is reported as 38.5 µM, the Activity (Mus musculus [2]) is reported as “Active” and the Kp at 2 h [3] is reported as 1.21. For the same compound, the concentration at 2 h [4] was 46.8 µM, the Activity (Mus musculus [5]) was “Active” and the pBBB [6] was greater than 0.3. The Activity (Mus musculus [7]) was “Active”.
With O=C(Nc1ccccc1/C=C/c1ccc(F)cc1)c1cccnn1 the Kd (Alpha-synuclein) was greater than 10 µM.
COc1ccc(/C=C/c2ccccc2NC(=O)c2cccs2)cc1 showed a Kd (Alpha-synuclein) greater than 10 µM.
In the case of O=C(Nc1ccccc1/C=C/c1ccc([N+](=O)[O-])cc1)c1cccnn1, the Kd (Alpha-synuclein) is reported as greater than 10 µM.
Compound COc1ccc(/C=C/c2ccccc2NC(=O)c2cccnn2)cc1 has a Kd (Alpha-synuclein) greater than 10 µM.
In the case of COc1ccc(/C=C/c2ccc(NC(=O)c3ccccc3)cc2)cc1, the Kd (Alpha-synuclein) is reported as greater than 10 µM.
Compound COc1ccc(/C=C/c2ccccc2NC(=O)NCc2cnccn2)cc1 has a Kd (Alpha-synuclein) greater than 10 µM.
O=C(Nc1ccc(/C=C/c2ccc(F)cc2)cc1)c1ccccc1 showed a Kd (Alpha-synuclein) greater than 10 µM.
With COc1ccc(/C=C/c2ccccc2NC(=O)c2cccnc2)cc1 the Kd (Alpha-synuclein) was greater than 10 µM.
In the case of CN(C)c1ccc(/C=C/c2ccccc2NC(=O)c2ccccn2)cc1, the concentration at 2 h [1] is reported as 6.06 µM, the Kp at 2 h [3] is reported as 2.62 and the concentration at 2 h [4] is reported as 15.9 µM. The Activity (Mus musculus [5]) was “inactive”, the pBBB [6] was greater than 0.3 and the Activity (Mus musculus [7]) was “Active”.
